How the values were obtained:
[1] = target: T1, ALK2 R206H (GST-tagged mutant ALK2) (Homo sapiens, UniProt Q04771, R206H); test: ALK binding assay (LANTHASCREEN TR-FRET competitive binding, displacement of Kinase Tracer 178); conditions: ALK2 R206H, LANTHASCREEN TR-FRET competitive binding; read-out: Binding Assay (IC50)
T1 construct: purchased Carna Bioscience or ThermoFisher 09-148 or PV6232
T1 sequence (Q04771 21-509 R206H): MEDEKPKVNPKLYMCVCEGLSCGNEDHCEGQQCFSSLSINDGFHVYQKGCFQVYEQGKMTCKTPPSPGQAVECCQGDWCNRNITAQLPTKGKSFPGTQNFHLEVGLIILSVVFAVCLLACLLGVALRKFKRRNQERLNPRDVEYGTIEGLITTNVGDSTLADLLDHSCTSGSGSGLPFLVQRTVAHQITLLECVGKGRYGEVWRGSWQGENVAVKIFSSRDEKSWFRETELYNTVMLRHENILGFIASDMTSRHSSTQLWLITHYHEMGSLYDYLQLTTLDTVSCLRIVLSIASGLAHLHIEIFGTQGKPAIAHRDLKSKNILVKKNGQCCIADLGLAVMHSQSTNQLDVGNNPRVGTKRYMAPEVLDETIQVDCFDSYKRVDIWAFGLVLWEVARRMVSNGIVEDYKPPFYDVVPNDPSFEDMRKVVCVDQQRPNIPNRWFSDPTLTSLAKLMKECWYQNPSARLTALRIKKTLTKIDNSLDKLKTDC

[2] = target: T2, human ALK2 R206H (Homo sapiens, UniProt Q04771, R206H); test: Cell-based ALK2-R206H cell activity assay (Smad1-Ser463/Ser465 phosphorylation by AlphaLISA in HEK293-ALK2-R206H cells); conditions: read-out: Cell Line (Cell Assay IC50)
T2 construct: expressed in transfected cells; host or cells: HEK293 (ATCC CRL1573), lentivirus transduction, blasticidin selection
T2 sequence (Q04771 21-509 R206H): T1 sequence (Q04771 21-509 R206H)
How it was run: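 Stable HEK293 cells expressing C-terminally FLAG-tagged human ALK2 R206H (lentiviral, blasticidin-selected) were treated with compounds in 10-point, 3-fold dilutions from 10 μM or 1 μM top, in duplicate. Smad1 Ser463/Ser465 phosphorylation was read by AlphaLISA.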

CC(C)NC(=O)N1CCN(c2ccnn3cc(-c4ccc(N5CCN(C(C)C)CC5)cc4)cc23)CC1 [Compound 348]
IC50 [1]: < 10 nM
IC50 [2]: < 100 nM

CC(C)N1CCN(c2ccc(-c3cc4c(N5CCN(C(=O)[C@@H]6C[C@H]6F)CC5)ccnn4c3)cc2)CC1 [Compound 349]
IC50 [1]: < 10 nM
IC50 [2]: < 100 nM

CC(C)N1CCN(c2ccc(-c3cc4c(N5CCN(C(=O)[C@H]6C[C@H]6F)CC5)ccnn4c3)cc2)CC1 [Compound 350]
IC50 [1]: < 10 nM
IC50 [2]: < 100 nM

CCNC(=O)N1CCN(c2ccnn3cc(-c4ccc(C5(O)CCCN(C(C)C)C5)cc4)cc23)CC1 (stereo not shown) [Compound 351]
IC50 [1]: < 10 nM
IC50 [2]: < 100 nM

CCNC(=O)N1CCN(c2ccnn3cc(-c4ccc(C5(O)CCN(C(C)C)CC5)cc4)cc23)CC1 [Compound 352]
IC50 [1]: < 10 nM
IC50 [2]: 100 to 500 nM

CC(C)N1CCC(c2ccc(-c3cc4c(N5CCN(C(=O)NCCO)CC5)ccnn4c3)cc2)CC1 [Compound 353]
IC50 [1]: < 10 nM
IC50 [2]: 100 to 500 nM

CCNC(=O)N1CCN(c2ccnn3cc(-c4ccc(C5CCN(C(C)C)CC5)c(F)c4)cc23)CC1 [Compound 354]
IC50 [1]: < 10 nM
IC50 [2]: < 100 nM

CCN1CCC(c2ccc(-c3cc4c(N5CCN(C(=O)C6CC6)CC5)ccnn4c3)cc2)C(F)(F)C1 (stereo not shown) [Compound 355]
IC50 [1]: 10 to 50 nM
IC50 [2]: > 500 nM

CCOC(=O)N1CCN(c2ccnn3cc(-c4ccc(C5CCN(C(C)C)CC5)c(F)c4)cc23)CC1 [Compound 357]
IC50 [1]: < 10 nM
IC50 [2]: < 100 nM

O=C(C1CC1)N1CCN(c2ccnn3cc(-c4ccc(N5CCN(CC(F)F)CC5)cc4)cc23)CC1 [Compound 359]
IC50 [1]: < 10 nM
IC50 [2]: > 500 nM

CCN1CCN(c2c(F)cc(-c3cc4c(N5CCN(C(=O)C6CC6)CC5)ccnn4c3)cc2F)CC1 [Compound 360]
IC50 [1]: < 10 nM
IC50 [2]: 100 to 500 nM

CCN1CCN(c2ccc(-c3cc4c(N5CCN(C(=O)C6CC6(F)F)CC5)ccnn4c3)cc2)CC1 (stereo not shown) [Compound 361]
IC50 [1]: < 10 nM
IC50 [2]: 100 to 500 nM

O=C(C1CC1)N1CCN(c2ccnn3cc(-c4ccc(N5CCNCC5)cc4OC(F)F)cc23)CC1 [Compound 363]
IC50 [1]: < 10 nM
IC50 [2]: 100 to 500 nM

CC(C)N1CC[C@@H](c2ccc(-c3cc4c(N5CCN(C(=O)[C@H]6C[C@H](C#N)C6)CC5)ccnn4c3)cc2)C1 [Compound 364]
IC50 [1]: < 10 nM
IC50 [2]: < 100 nM

CC(C)N1CCC(c2ccc(-c3cc4c(N5CCN(C(=O)[C@H]6C[C@@H]6C#N)CC5)ccnn4c3)cc2)CC1 [Compound 365]
IC50 [1]: < 10 nM
IC50 [2]: < 100 nM

CC(C)N1CC[C@H](c2ccc(-c3cc4c(N5CCN(C(=O)[C@H]6C[C@H](C#N)C6)CC5)ccnn4c3)cc2)C1 [Compound 366]
IC50 [1]: < 10 nM
IC50 [2]: < 100 nM

CCN1CCN(c2ccc(-c3cc4c(N5CCN(C(=O)C6CC(C#N)C6)CC5)ccnn4c3)cc2)CC1 (stereo not shown) [Compound 367]
IC50 [1]: < 10 nM
IC50 [2]: < 100 nM

CC(C)N1CC[C@H](c2ccc(-c3cc4c(N5CCN(C(=O)N6CC(C#N)C6)CC5)ccnn4c3)cc2)C1 [Compound 368]
IC50 [1]: < 10 nM
IC50 [2]: < 100 nM

CC(C)N1CC[C@@H](c2ccc(-c3cc4c(N5CCN(C(=O)N6CC(C#N)C6)CC5)ccnn4c3)cc2)C1 [Compound 369]
IC50 [1]: < 10 nM
IC50 [2]: < 100 nM

CCN1CCC(c2ccc(-c3cc4c(N5CCN(C(=O)N6CC(C#N)C6)CC5)ccnn4c3)cc2)CC1 [Compound 370]
IC50 [1]: < 10 nM
IC50 [2]: < 100 nM

N#C[C@H]1CC[C@H](C(=O)N2CCN(c3ccnn4cc(-c5ccc(N6CCNCC6)cc5)cc34)CC2)CC1 [Compound 371]
IC50 [1]: < 10 nM
IC50 [2]: < 100 nM

O=C(C1CC1)N1CCN(c2ccnn3cc(-c4ccc(N5CCNC(C(F)(F)F)C5)cc4)cc23)CC1 (stereo not shown) [Compound 373]
IC50 [1]: 10 to 50 nM
IC50 [2]: > 500 nM

N#C[C@H]1CC[C@H](C(=O)N2CCN(c3ccnn4cc(-c5ccc(C6CNCCO6)cc5)cc34)CC2)CC1 (stereo partly shown) [Compound 375]
IC50 [1]: < 10 nM
IC50 [2]: < 100 nM

CCN1CCN(c2ccc(-c3cc4c(N5CCN(C(=O)N6CC(C#N)C6)CC5)ccnn4c3)cc2)CC1 [Compound 376]
IC50 [1]: < 10 nM
IC50 [2]: < 100 nM

CC(C)N1CCC(c2ccc(-c3cc4c(N5CCN(C(=O)NCCC#N)CC5)ccnn4c3)cc2)CC1 [Compound 377]
IC50 [1]: < 10 nM
IC50 [2]: 100 to 500 nM

CCN1CCC(c2ccc(-c3cc4c(N5CCN(C(=O)N6CCCCC6)CC5)ccnn4c3)cc2)CC1 [Compound 379]
IC50 [1]: < 10 nM
IC50 [2]: 100 to 500 nM

CC(C)N1CCC(c2ccc(-c3cc4c(N5CCN(C(=O)NC6CCC6)CC5)ccnn4c3)cc2)CC1 [Compound 380]
IC50 [1]: < 10 nM
IC50 [2]: < 100 nM

CC(C)N1CCCC(c2ccc(-c3cc4c(N5CCN(C(=O)[C@H]6C[C@H](O)C6)CC5)ccnn4c3)cc2)C1 (stereo partly shown) [Compound 381]
IC50 [1]: < 10 nM
IC50 [2]: < 100 nM

CCN1CCC(c2ccc(-c3cc4c(N5CCN(C(=O)[C@H]6C[C@H](O)C6)[C@H](C)C5)ccnn4c3)cc2)CC1 [Compound 382]
IC50 [1]: < 10 nM
IC50 [2]: < 100 nM

CCN1CCC(c2ccc(-c3cc4c(N5CCN(C(=O)C6CC(C)(O)C6)CC5)ccnn4c3)cc2)CC1 (stereo not shown) [Compound 383]
IC50 [1]: < 10 nM
IC50 [2]: < 100 nM

CCN1CCC(c2ccc(-c3cc4c(N5CCN(C(=O)[C@H]6C[C@](C)(O)C6)CC5)ccnn4c3)cc2)CC1 [Compound 384]
IC50 [1]: < 10 nM
IC50 [2]: < 100 nM

CC(C)N1CCC[C@@H](c2ccc(-c3cc4c(N5CCN(C(=O)[C@H]6C[C@H](O)C6)CC5)ccnn4c3)cc2)C1 [Compound 385]
IC50 [1]: < 10 nM
IC50 [2]: < 100 nM

CC(C)N1CCC(c2ccc(-c3cc4c(N5CCN(C(=O)OCC6CC6)CC5)ccnn4c3)cc2)CC1 [Compound 386]
IC50 [1]: < 10 nM
IC50 [2]: 100 to 500 nM

CC(C)N1CCC[C@H](c2ccc(-c3cc4c(N5CCN(C(=O)[C@H]6C[C@H](O)C6)CC5)ccnn4c3)cc2)C1 [Compound 387]
IC50 [1]: < 10 nM
IC50 [2]: < 100 nM

COC1(c2ccc(-c3cc4c(N5CCN(C(=O)C6CC6)CC5)ccnn4c3)cc2)CCCN(C(C)C)C1 (stereo not shown) [Compound 388]
IC50 [1]: < 10 nM
IC50 [2]: < 100 nM

CCN1CCN(CCOc2ccc(-c3cc4c(N5CCN(C(=O)C6CC6)CC5)ccnn4c3)cc2)CC1 [Compound 390, cyclopropyl(4-(6-(4-(2-(4-ethylpiperazin-1-yl)ethoxy)phenyl)pyrrolo[1,2-b]pyridazin-4-yl)piperazin-1-yl)methanone]
IC50 [1]: 10 to 50 nM
IC50 [2]: 100 to 500 nM

CCN1CCN(c2ccc(-c3cc4c(N5CCN(C(=O)C6CC(C)(O)C6)CC5)ccnn4c3)cc2)CC1 (stereo not shown) [Compound 391]
IC50 [1]: < 10 nM
IC50 [2]: < 100 nM

CC[C@H](C)NC(=O)N1CCN(c2ccnn3cc(-c4ccc(C5CCN(C(C)C)CC5)cc4)cc23)CC1 [Compound 393]
IC50 [1]: < 10 nM
IC50 [2]: 100 to 500 nM

CCNC(=O)N1CCN(c2ccnn3cc(-c4ccc(C5(OC)CCN(C(C)C)CC5)cc4)cc23)CC1 [Compound 399]
IC50 [1]: < 10 nM
IC50 [2]: < 100 nM

CCNC(=O)N1CCN(c2ccnn3cc(-c4ccc(C5(OC)CCCN(C(C)C)C5)cc4)cc23)CC1 (stereo not shown) [Compound 400]
IC50 [1]: < 10 nM
IC50 [2]: < 100 nM

COCCOC(=O)N1CCN(c2ccnn3cc(-c4ccc(C5CCN(C(C)C)CC5)cc4)cc23)CC1 [Compound 401]
IC50 [1]: < 10 nM
IC50 [2]: 100 to 500 nM

CCN1CCN(c2ccc(-c3cc4c(N5CCN(C(=O)C6CC(F)(F)C6)CC5)ccnn4c3)cc2)CC1 [Compound 402]
IC50 [1]: < 10 nM
IC50 [2]: 100 to 500 nM

CCN1CC2(C1)CN(c1ccc(-c3cc4c(N5CCN(C(=O)N6CC(C#N)C6)CC5)ccnn4c3)cc1)C2 [Compound 404]
IC50 [1]: < 10 nM
IC50 [2]: 100 to 500 nM

CC(C)N1CC(c2ccc(-c3cc4c(N5CCN(C(=O)[C@H]6CC[C@H](C#N)CC6)CC5)ccnn4c3)cc2)C1 [Compound 406]
IC50 [1]: < 10 nM
IC50 [2]: < 100 nM
